Measured values published in EP1202959B1, “AMINOBENZOPHENONES AS INHIBITORS OF IL-1-BETA AND TNF-ALPHA” (LEO PHARMA A/S, priority 1999, dated 2001).

Key:
Type in all cases: cell-based
[1] = system: IL-1β; assay: Inhibition of IL-1β secretion in LPS stimulated peripheral blood mononuclear cells (ELISA); settings: PBMC; LPS stimulated human peripheral blood mononuclear cells; compounds added 30 minutes before LPS; incubated 18 hours; read-out: The median inhibition concentration (IC50, nM) of IL-1β
Description: (§1) To study the effect of the compound of the present invention in vitro the inhibition of the IL-1β and TNF-α secretion was measured using the following procedure:
(§2) Cytokine production was measured in the media from lipopolysaccharide (LPS) stimulated peripheral blood mononuclear cells. The mononuclear cells were isolated from human peripheral blood by Lymphoprep® (Nycomed, Norway) fractionation and suspended in RPMI 1640 (growth medium) with foetal calv serum (FCS, 2%), at a concentration of 5 x 10^5 cells/ml. The cells were incubated in 24-well tissue culture plates in 1 ml aliquots. Test compounds were dissolved in dimethylsulfoxide (DMSO, 10 mM) and were diluted with the medium. Compounds were added to the cells for 30 minutes, then LPS ([…] final concentration) was added. The plates were incubated for 18 hours, and the concentration of IL-1β and TNF-α in the medium was determined by enzyme-linked immunosorbent assays. The median inhibitory concentrations (IC50) of the compounds were calculated.

[2] = system: Human polymorphonuclear (PMN) granulocytes; assay: Inhibition of PMN superoxide secretion (superoxide dismutase inhibitable reduction of ferricytochrome C); settings: human PMN granulocytes primed with TNF-α (3 ng/ml), stimulated with fMLP (10^-7 M); read-out: The median inhibition concentration (IC50, nM) of PMN-superoxide
Description: The compounds of the present invention also show similar activities in the ability to inhibit PMN (polymorphonuclear) superoxide secretion which is also indicative of potentially useful anti-inflammatory drugs. The compounds were tested using the following procedure: Human polymorphonuclear (PMN) granulocytes were isolated from human blood by dextran sedimentation, Lymphoprep® fractionation and hypotonic lysis of contaminating erythrocytes. Superoxide anion generation was measured as the superoxide dismutase inhibitable reduction of ferricytochrome C (Madhu, S.B. et al, Inflammation, 16, 241, (1992)). The cells were suspended in Hanks' balanced salt solution, and incubated for 10 minutes at 37°C with test compounds. The cells were primed by the addition of TNF-α (3 ng/ml final concentration) for 10 minutes, and then ferricytochrome C, (final concentration 750µg/ml), bovine serum albumin (BSA, final concentration 1 mg/ml) and formyl-methionyl-leucyl-phenylalanine (fMLP, final concentration 10^-7 M) were added for 3 minutes. The cells were chilled on ice, and were spun down. The optical densities in the cell-free supernatant was measured in a spectrophotometer. The median inhibitory concentration (IC50) of the compounds was calculated.

[3] = system: TNF-α; assay: Inhibition of TNF-α secretion in LPS stimulated peripheral blood mononuclear cells (ELISA); settings: PBMC; LPS stimulated human peripheral blood mononuclear cells; compounds added 30 minutes before LPS; incubated 18 hours; read-out: The median inhibition concentration (IC50, nM) of TNF-α
Description: as §1, §2

Row | Compound | IC50 [1] [nM] | IC50 [2] [nM] | IC50 [3] [nM]
1 | Cc1ccccc1C(=O)c1ccc(Nc2ccccc2NC(=O)Oc2ccccc2)cc1Cl [Compound 105, Phenyl N-[2-[3-chloro-4-(2-methylbenzoyl)-phenylamino]phenyl]carbamate] | 50 | 100 | 10
2 | CC(=O)OCOC(=O)Nc1ccccc1Nc1ccc(C(=O)c2ccccc2C)c(Cl)c1 [Compound 109, 1-Acetoxymethyl N-[2-[3-chloro-4-(2-methylbenzoyl)-phenylamino]phenyl]carbamate] | 32 | 40 | 6.3
3 | Cc1ccccc1C(=O)c1ccc(Nc2ccccc2N)cc1Cl [ref. a), 4-(2-Aminophenylamino)-2-chloro-2'-methylbenzophenone] | 13 | 5 | 7.1
4 | CCOC(=O)Nc1ccccc1Nc1ccc(C(=O)c2ccccc2C)c(Cl)c1 [ref. b), Ethyl N-[2-[3-chloro-4-(2-methylbenzoyl)-phenylamino]phenyl]carbamate] | 32 | 5 | 5
